The test deals with Rattus norvegicus. As to the kind of experiment: Average percentage HDLC change in 6 cholesterol cholic acid-fed male rats (versus control) after treatment for 8 days at a dose of 100 mg/kg/day. It counts as functional.
Regarding `CC1(C)CN2C(=O)c3ccccc3C(O)(c3ccccc3)C2=N1` (stereo not drawn), the HDL-C change was determined as 55%.

In turn, `C[C@@H]1CN2C(=O)c3ccccc3[C@@](O)(c3ccc(F)cc3)C2=N1` had an HDL-C change of 105%.

`O=C1c2ccccc2C(O)(c2ccc(F)cc2)C2=NC3(CCCC3)CN12` (stereo not drawn): the HDL-C change was determined as 21%.

As for `O=C1c2ccccc2C(O)(c2ccc(F)cc2)C2=NCCCN12` (stereo not drawn), the HDL-C change came out at 22%.

The molecule `O=C1c2ncccc2C(O)(c2ccc(Cl)cc2)C2=NCCN12` (stereo not drawn) gave an HDL-C change of 49%.

For the molecule `O=C1c2ccccc2C(O)(c2ccc(F)cc2)C2=NCCN12` (stereo not drawn), the HDL-C change stood at 0%.

The molecule `CC1(C)CN2C(=O)c3ccccc3C(O)(c3ccc(F)cc3)C2=N1` (stereo not drawn) yielded an HDL-C change of 90%.

Molecule `C[C@@H]1CN2C(=O)c3ccccc3C(O)(c3ccc(F)cc3)C2=N1` (single isomer, unassigned) showed an HDL-C change of 38%.

The values are drawn from ChEMBL document CHEMBL1134163, “Design and synthesis of tricyclic derivatives as high density lipoprotein cholesterol enhancers” (2001).
